Values of other authors, collected in patent publication US20030060503A1, “Nutritional supplements for mature pets” (Juvenon, Inc., priority 2000, published 2003).
Like-named read-outs stand apart in the source and are kept apart here.

Tests used:
[1] = test system: carnitine-acetyl-carnitine exchange across the inner mitochondrial membrane
[2] = daily supplements of up to 200 mg for 6-12 months and 100 mg daily for up to 6 y
[3] = test system: programmed cell death, or apoptosis; settings: through its action in the mitochondria
aged rats = settings: supplementation
oxidant production = settings: carnitine supplementation
skeletal muscle = settings: older individuals (40-73), 20 g/day, one week

C[N+](C)(C)C[C@H](O)CC(=O)[O-] [L-carnitine]
age-related decrease of carnitine-acetyl-carnitine exchange activity [1]: slow or reverse this age-related dysfunction

COC1=C(OC)C(=O)C(C/C=C(\C)CC/C=C(\C)CC/C=C(\C)CC/C=C(\C)CC/C=C(\C)CC/C=C(\C)CC/C=C(\C)CC/C=C(\C)CC/C=C(\C)CCC=C(C)C)=C(C)C1=O [Q10, coenzyme Q10]
adverse effects [2]: No important adverse effects
recovery of function in older hearts (senescent myocardium): corrected the age-specific diminished recovery of function in older hearts
tolerance of senescent myocardium to aerobic and ischemic stress (senescent myocardium; human atrial tissue and rats): improves the tolerance of the senescent myocardium to aerobic and ischemic stress
programmed cell death (apoptosis) [3]: appears to block programmed cell death

O=C(O)CCCC[C@@H]1CCSS1 [R-α-lipoic acid]
ambulatory activity (aged rats; aged rats): triple the ambulatory activity of aged rats
age-related increase in oxidants (aged rats): significantly lower the age-related increase in oxidants
glutathione and ascorbic acid levels (aged rats): restore glutathione and ascorbic acid levels to youthful levels
mitochondrial membrane potential (aged rats): restore the age-related decline in mitochondrial membrane potential
oxygen consumption (aged rats): reverse the age-related decrease in oxygen consumption

C[N+](C)(C)CC(O)CC(=O)[O-] (centres unmarked) [carnitine]
cell antioxidants (oxidant production): decreased cell antioxidants markedly
increase in oxidant production (oxidant production): 30%

CN(CC(=O)O)C(=N)N [creatine]
safety (1.5 g-25 g/day for at least a year): safe
adverse effects (athletes, doses up to 75 grams a day for years): without known adverse effects, aside from weight gain
skeletal muscle strength and endurance (skeletal muscle): increased skeletal muscle strength and endurance

COc1c(O)c(C)c(C/C=C(\C)CC/C=C(\C)CC/C=C(\C)CC/C=C(\C)CC/C=C(\C)CC/C=C(\C)CC/C=C(\C)CC/C=C(\C)CC/C=C(\C)CCC=C(C)C)c(O)c1OC [ubiquinol-10]
oxidative damage to DNA (human lymphocytes): appears to protect human lymphocytes from oxidative damage to DNA

acyl-L-carnitine
age-related decrease of carnitine-acetyl-carnitine exchange activity [1]: slow or reverse this age-related dysfunction
